Reference: ChEMBL document CHEMBL4610094, “Prenylated Phenolic Compounds from the Aerial Parts of Glycyrrhiza uralensis as PTP1B and α-Glucosidase Inhibitors” (J Nat Prod, 2020)
pIC50: −log10 of the molar value. The source made the active and inactive calls. The calls are words filed in the database; no cut-off is given here.

Legend:
[1] = Inhibition of alpha-Glucosidase (unknown origin) using pNPG as substrate incubated for 30 mins; parameters: species or system Homo sapiens
[2] = Cytotoxicity against human insulin resistant HepG2 cells assessed as cell viability at 10 uM by CCK8 assay relative to control; type: cell-based; settings: read-out: Activity
[3] = target: T1, Tyrosine-protein phosphatase non-receptor type 1 (Homo sapiens, UniProt P18031); assay: Inhibition of recombinant human PTP1B (1 to 321 residues) expressed in Escherichia coli using p-nitrophenyl phosphate as substrate incubated for 30 mins
T1 sequence (P18031 whole entry): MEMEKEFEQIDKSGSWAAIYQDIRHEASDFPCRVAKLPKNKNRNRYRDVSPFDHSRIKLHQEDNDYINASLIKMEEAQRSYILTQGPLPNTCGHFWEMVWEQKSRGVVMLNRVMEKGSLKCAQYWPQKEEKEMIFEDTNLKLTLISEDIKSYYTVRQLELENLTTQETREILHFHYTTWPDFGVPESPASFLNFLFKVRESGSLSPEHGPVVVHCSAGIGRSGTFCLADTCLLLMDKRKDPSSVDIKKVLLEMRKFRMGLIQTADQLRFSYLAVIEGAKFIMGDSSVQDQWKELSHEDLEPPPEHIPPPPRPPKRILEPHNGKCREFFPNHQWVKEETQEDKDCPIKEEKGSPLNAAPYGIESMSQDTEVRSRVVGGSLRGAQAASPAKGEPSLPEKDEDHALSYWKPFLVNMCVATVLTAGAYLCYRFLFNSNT

[4] = target: T2, Tyrosine-protein phosphatase non-receptor type 1 (Homo sapiens) (UniProt P18031); assay: Inhibition of recombinant human PTP1B (1 to 321 residues) expressed in Escherichia coli at 10 uM using p-nitrophenyl phosphate as substrate incubated for 30 mins relative to control
T2 sequence (whole entry): T1 sequence (P18031 whole entry)

[5] = species: Homo sapiens; assay: Inhibition of alpha-Glucosidase (unknown origin) at 10 uM using pNPG as substrate incubated for 30 mins relative to control
[6] = test system: HepG2; assay: Induction of glucose uptake in human insulin resistant HepG2 cells at 10 uM incubated for 24 hrs by GOD-POD method relative to control; type: functional
[7] = test system: HepG2; assay: Induction of glucose uptake in human insulin resistant HepG2 cells at 500 uM incubated for 24 hrs by GOD-POD method relative to control; type: functional, cell-based

Row | SMILES | pIC50 [1] | pIC50 [3] | inhibition [4] [%] | inhibition [5] [%] | viability at 10 µM [2] [%] | Activity [6] [%] | Activity [7]
1 | CC(C)=CCc1c(O)ccc(-c2cc3ccc(O)cc3o2)c1O [2'-O-DEMETHYLBIDWILLOL B] | 5.07 | 5.04 | > 60 | 61.7 | 80 to 110 |  | 
2 | CC1(C)C=Cc2c(ccc([C@@H]3COc4cc(O)cc(O)c4C3=O)c2O)O1 |  |  | > 60 | > 40 | 80 to 110 |  | 
3 | COc1cc2oc(=O)c3c4ccc(O)cc4oc3c2c(OC)c1CC=C(C)C |  |  | > 60 | > 40 | 80 to 110 |  | 
4 | COc1ccc(-c2coc3cc(O)cc(O)c3c2=O)cc1 [BIOCHANIN] | 5.42 |  | > 60 | > 40 | 80 to 110 |  | 
5 | COc1cc2c(c(O)c1CC=C(C)C)C(=O)C(c1ccc(O)c(CC=C(C)C)c1O)CO2 (stereo not given) |  | 5.37 | > 60 | > 40 | 80 to 110 |  | 
6 | CC(C)=CCc1c(O)ccc(-c2coc3cc(O)c(CC=C(C)C)c(O)c3c2=O)c1O |  | 5.12 | > 60 | > 40 | 80 to 110 |  | 
7 | CN(C)C(=N)NC(=N)N |  |  |  |  |  |  | Active
8 | COc1cc2oc(-c3ccc(O)cc3O)cc2c(OC)c1CC=C(C)C |  | 5.48 | > 60 | > 40 | 80 to 110 |  | 
9 | COc1ccc(C2COc3c(CC=C(C)C)c(O)cc(O)c3C2=O)c(O)c1 (stereo not given) |  |  | > 60 | > 40 | 80 to 110 |  | 
10 | COc1cc2c(c(OC)c1CC=C(C)C)C[C@H](c1ccc(O)c3c1OC(C)(C)C=C3)CO2 |  | 5.14 |  |  |  |  | 
11 | COc1c(CC=C(C)C)c(O)cc2c1[C@@H]1Oc3cc4c(cc3[C@@H]1CO2)C=CC(C)(C)O4 |  | 5.32 | > 60 | > 40 | 80 to 110 |  | 
12 | CC(C)=CCc1c(O)ccc(C2COc3cc(O)c(CC=C(C)C)c(O)c3C2=O)c1O (stereo not given) |  |  | > 60 | > 40 | 80 to 110 |  | 
13 | CC(C)=CCc1c(O)cc2oc(-c3ccc(O)cc3)c(O)c(=O)c2c1O [LICOFLAVONOL] |  |  | > 60 | > 40 | 80 to 110 |  | 
14 | COc1c(CC=C(C)C)c(O)cc2c1[C@@H]1Oc3cc(O)c(CC=C(C)C)cc3[C@@H]1CO2 |  | 5.36 |  |  |  |  | 
15 | CC1(C)C=Cc2cc(-c3coc4cc(O)cc(O)c4c3=O)cc(O)c2O1 |  |  | > 60 | > 40 | 80 to 110 |  | 
16 | CC(C)=CCc1cc(-c2oc3cc(O)c(CC=C(C)C)c(O)c3c(=O)c2O)ccc1O | 5.49 |  |  |  |  |  | 
17 | CC1(C)C=Cc2cc(/C=C/C(=O)c3ccc(O)cc3O)ccc2O1 |  |  | > 60 | > 40 | 80 to 110 |  | 
18 | O=c1c(-c2ccc(O)cc2)coc2cc(O)cc(O)c12 [GENISTEIN] |  |  | > 60 | 58.4 | 80 to 110 |  | 
19 | COc1cc2c(c(OC)c1CC=C(C)C)C[C@H](c1ccc(O)c(CC=C(C)C)c1O)CO2 |  |  | > 60 | > 40 | 80 to 110 |  | 
20 | CC(C)=CCc1cc([C@@H]2CC(=O)c3c(O)cc(O)cc3O2)ccc1O |  |  | > 60 | > 40 | 80 to 110 |  | 
21 | COc1c(CC=C(C)C)c(O)cc2oc(-c3ccc(O)cc3O)cc12 [LICOCOUMARONE] |  |  | > 60 | 61.2 | 80 to 110 | >80 | 
22 | COc1cc2c(c(O)c1CC=C(C)C)C(=O)[C@H](c1ccc(O)cc1)CO2 |  |  | > 60 | > 40 | 80 to 110 | 95 | 
23 | COc1cc2occ(-c3ccc(O)cc3O)c(=O)c2c(O)c1CC=C(C)C |  | 5.28 |  |  |  |  | 
24 | COc1ccc([C@@H]2COc3cc(O)c(CC=C(C)C)cc3C2)c(O)c1 |  |  | > 60 | > 40 | 80 to 110 |  | 
25 | CC(C)=CCc1c(O)cc2c(c1O)C(=O)[C@@](O)(c1ccc(O)c3c1OC(C)(C)C=C3)CO2 | 4.70 | 5.23 | > 60 | > 40 | 80 to 110 |  | 
26 | COc1cc(O)c2c(=O)c(OC)c(-c3ccc(O)cc3)oc2c1 [KUMATAKENIN] |  |  | > 60 | > 40 | 80 to 110 |  | 
27 | CC(C)=CCc1c(O)ccc([C@@]2(O)COc3cc(O)c(CC=C(C)C)c(O)c3C2=O)c1O |  |  | > 60 | > 40 | 80 to 110 |  | 
28 | COc1c(-c2ccc(O)cc2)oc2cc(O)c(CC=C(C)C)c(O)c2c1=O |  | 5.35 |  |  |  |  | 
29 | CC(C)=CCc1cc([C@@H]2COc3cc(O)c(CC=C(C)C)c(O)c3C2=O)ccc1O |  |  |  | > 40 |  |  | 
30 | COc1c(CC=C(C)C)c(O)cc2c1-c1oc3cc(O)ccc3c1CO2 | 6.52 | 5.08 | > 60 | > 40 | 80 to 110 | >80 | 

Continued, in another order:

Row | pIC50 [1] | pIC50 [3] | inhibition [4] [%] | inhibition [5] [%] | SMILES | viability at 10 µM [2] [%] | Activity [6] [%] | Activity [7]
31 |  | 5.11 |  |  | CC(C)=CCc1cc(-c2coc3cc(O)c(CC=C(C)C)c(O)c3c2=O)cc(O)c1O |  |  | 
32 |  | 5.15 |  |  | CC(C)=CCc1c(O)ccc(-c2coc3c(CC=C(C)C)c(O)cc(O)c3c2=O)c1O |  |  | 
33 | 7.00 |  | > 60 | > 40 | COc1c(CC=C(C)C)c(O)cc2oc(=O)c(-c3ccc(O)cc3O)cc12 [GLYCYCOUMARIN] | 80 to 110 |  | 
34 | 5.42 |  |  |  | Oc1ccc2c(c1)OC[C@@H](c1cc3c(cc1O)OCO3)C2 |  |  | 
35 | 4.79 | 5.64 |  |  | CC(C)=CCc1c(O)c(CC=C(C)C)c2occ(-c3ccc(O)cc3)c(=O)c2c1O |  |  | 
36 |  |  | > 60 | > 40 | O=c1c(O)c(-c2ccc(O)cc2)oc2cc(O)cc(O)c12 [KAEMPFEROL] | 80 to 110 | >80 | 
37 | 3.78 |  |  |  | C[C@H]1O[C@H](O[C@H]2[C@H](O)[C@@H](O)[C@@H](O[C@H]3[C@H](O)[C@@H](O)C(O)O[C@@H]3CO)O[C@@H]2CO)[C@H](O)[C@@H](O)[C@@H]1N[C@H]1C=C(CO)[C@@H](O)[C@H](O)[C@H]1O (stereo not given in full) [ACARBOSE] |  |  | 
38 |  |  |  | 34.2 | CC(C)=CCc1cc(-c2coc3cc(O)cc(O)c3c2=O)ccc1O |  |  | 
39 |  |  | > 60 | > 40 | COc1cc(O)ccc1/C=C/C(=O)c1ccc(O)cc1 [ECHINATIN] | 80 to 110 |  | 
40 |  | 5.23 |  |  | COc1c(CC=C(C)C)c(O)cc2c1C[C@H](c1ccc(O)c(CC=C(C)C)c1O)CO2 [LICORICIDIN] |  |  | 
41 |  | 5.28 | > 60 | > 40 | COc1cc(O)ccc1-c1cc2c(OC)c(CC=C(C)C)c(O)cc2o1 | 80 to 110 |  | 
42 |  |  | > 60 | > 40 | COc1cc2c(c(O)c1CC=C(C)C)C(=O)C(c1ccc(O)cc1O)CO2 (stereo not given) | 80 to 110 | >80 | 
43 |  |  | > 60 | > 40 | CC1(C)C=Cc2cc(-c3coc4cc(O)cc(O)c4c3=O)ccc2O1 | 80 to 110 |  | 
44 |  |  | > 60 | > 40 | O=c1c(-c2ccc(O)cc2)coc2cc(O)ccc12 [DAIDZEIN] | 80 to 110 | >80 | 
45 |  |  | > 60 | > 40 | COc1ccc([C@@H]2COc3cc(O)ccc3C2)c(O)c1 | 80 to 110 |  | 
46 |  |  | > 60 | > 40 | COc1cc2c(c(OC)c1CC=C(C)C)C[C@H](c1ccc(O)cc1O)CO2 [GLYASPERIN D] | 80 to 110 |  | 
47 |  | 5.17 | > 60 | > 40 | C=C(C)[C@@H](O)Cc1c(O)ccc([C@@H]2COc3cc(OC)c(CC=C(C)C)c(OC)c3C2)c1O | 80 to 110 |  | 
48 |  | 5.68 | > 60 | > 40 | CC(C)=CCc1cc([C@@H]2CC(=O)c3c(O)cc(O)c(CC=C(C)C)c3O2)ccc1O [LESPEDEZAFLAVANONE B] | 80 to 110 |  | 
49 |  |  | > 60 | 20.1 | CC(C)=CCc1c(O)ccc(-c2coc3cc(O)cc(O)c3c2=O)c1O | 80 to 110 |  | 
50 | 5.25 |  | > 60 | > 40 | O=C(/C=C/c1ccc(O)cc1)c1ccc(O)cc1O [ISOLIQUIRITIGENIN] | 80 to 110 |  | 
